Assay results from patent US10221163B2 (priority 2015, dated 2019).
Read-outs that look alike come from different tables or passages of the source.

What was measured:
IMP-1 = IMP-1 (Serratia marcescens, UniProt P52699); assay: biochemical; assay type: biochemical; settings: fluorescence assay, CCF2-FA substrate, 2 pM enzyme, 2 hours at 25° C.; read-out: IMP-1 IC50
Outline: (§1)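 Fluorescence assay of metallo-β-lactamase activity using CCF2-FA, a cephalosporin-linked 7-hydroxycoumarin–fluorescein substrate. Inhibitor, enzyme and substrate were incubated together for 2 hours at 25° C. IC50 came from a 4-parameter fit of inhibition versus inhibitor concentration.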

NDM-1 = NDM-1 (Klebsiella pneumoniae, UniProt C7C422); assay: biochemical; assay type: biochemical; settings: fluorescence assay, CCF2-FA substrate, 1 pM enzyme, 2 hours at 25° C.; read-out: NDM-1 IC50
Outline: as §1

VIM-1 = VIM-1 (Pseudomonas aeruginosa (strain ATCC 15692 / DSM 22644 / CIP 104116 / JCM 14847 / LMG 12228 / 1C / PRS 101 / PAO1), UniProt A0A0F7KYQ8); assay: biochemical; settings: CCF2-FA substrate, 30 pM enzyme, 2 hours at 25° C.
Outline: as §1

[1] = tested on: Escherichia coli expressing NDM-1 (CLB30005, CLB30016); assay type: cell-based; settings: NDM-1 strain, with imipenem 1 μg/ml, 95% inhibition of growth
Outline: (§2)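 Imipenem 1 μg/ml + inhibitor; MBL-expressing clinical strains in 1.1×CAMHB, inoculum from saline suspension diluted 1:100; 35° C, 22–24 h; absorbance read-out.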

[2] = tested on: Klebsiella pneumoniae expressing VIM-1 (IHMA599644); assay type: cell-based; settings: VIM-1 strain IHMA599644, with imipenem 1 μg/ml, 95% inhibition of growth
Outline: as §2

[3] = tested on: Serratia marcescens expressing IMP-1 (CL5741); assay type: cell-based; settings: IMP-1 strain CL5741, with imipenem 1 μg/ml, 95% inhibition of growth
Outline: as §2

[4] = tested on: Pseudomonas aeruginosa efflux+ (MB9798), IMP-1; assay type: cell-based; settings: concentration restoring susceptibility to imipenem at 2 μg/mL in the presence of a class A, C, D serine β-lactamase inhibitor closely related to relebactam
Outline: (§3)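 PAO1 pair, broth microdilution; fixed β-lactam (imipenem/ceftazidime) at ~CLSI breakpoint + fixed class A/C BLI for AmpC; serial MBLi titration; endpoint = MBLi conc. restoring susceptibility; MB9798:MB9799 ratio = efflux liability.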

[5] = tested on: Pseudomonas aeruginosa efflux− (MB9799), IMP-1; assay type: cell-based; settings: concentration restoring susceptibility to imipenem at 2 μg/mL in the presence of a class A, C, D serine β-lactamase inhibitor closely related to relebactam
Outline: as §3

[6] = tested on: Pseudomonas aeruginosa MB9798 vs MB9799; settings: ratio MITC95 PA_9798/MITC95 PA_9799
Outline: as §3

[7] = fluorescence assay, read-out: VIM-1 IC50

NDM-1, sequence (C7C422 whole entry, looked up, species assumed): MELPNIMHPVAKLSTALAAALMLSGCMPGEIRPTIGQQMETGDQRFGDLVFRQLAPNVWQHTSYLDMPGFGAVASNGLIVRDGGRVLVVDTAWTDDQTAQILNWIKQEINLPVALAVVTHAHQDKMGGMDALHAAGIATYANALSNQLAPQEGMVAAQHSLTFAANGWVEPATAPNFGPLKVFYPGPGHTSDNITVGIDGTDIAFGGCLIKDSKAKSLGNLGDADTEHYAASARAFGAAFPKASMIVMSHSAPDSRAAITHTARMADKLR
IMP-1, sequence (P52699 whole entry, looked up, species assumed): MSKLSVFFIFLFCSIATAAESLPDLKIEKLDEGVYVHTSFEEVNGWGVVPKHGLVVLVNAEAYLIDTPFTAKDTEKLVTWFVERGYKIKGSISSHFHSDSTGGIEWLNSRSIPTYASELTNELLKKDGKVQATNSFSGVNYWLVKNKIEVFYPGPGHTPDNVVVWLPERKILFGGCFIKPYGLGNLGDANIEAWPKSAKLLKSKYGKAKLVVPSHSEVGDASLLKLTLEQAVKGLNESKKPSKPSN

SMILES	IC50 (IMP-1)	IC50 (NDM-1)	IC50 (VIM-1; [7])	Escherichia coli MITC95 [1]	Klebsiella pneumoniae MITC95 [2]	Serratia marcescens MITC95 [3]	P. aeruginosa expressing IMP-1, efflux + (MB9798) MITC95 [4]	P. aeruginosa expressing IMP-1, efflux − (MB9799) MITC95 [5]	Efflux ratio [6]	IC50 (VIM-1; VIM-1 IC50, fluorescence assay)
NC[C@@H](O)CNS(=O)(=O)c1ccc(-c2cccc3[nH]cnc23)c(-c2nn[nH]n2)c1S(N)(=O)=O [Example 301, (R)-4-(1H-benzo[d]imidazol-4-yl)-N1-(3-amino-2-hydroxypropyl)-3-(2H-tetrazol-5-yl)-benzene-1,2-disulfonamide]	0.129 nM	0.0163 nM	0.0528 nM	1.563 µM	3.125 µM	0.3906 µM	0.7813 µM	0.7813 µM	1.00	
Cn1c(N)nc2c(-c3ccc(S(=O)(=O)NC[C@H](O)CN)c(S(N)(=O)=O)c3-c3nn[nH]n3)cccc21 [Example 302, (R)-4-(2-amino-1-methyl-1H-benzo[d]imidazol-4-yl)-N1-(3-amino-2-hydroxypropyl)-3-(2H-tetrazol-5-yl)benzene-1,2-disulfonamide]	0.341 nM	0.0449 nM		0.7813 µM	1.563 µM	0.7813 µM	0.7813 µM	0.7813 µM	1.00	0.141 nM
NC[C@@H](O)CNS(=O)(=O)c1ccc(-c2ccc(N)nc2)c(-c2nn[nH]n2)c1S(N)(=O)=O [Example 303, (R)-N1-(3-amino-2-hydroxypropyl)-4-(6-aminopyridin-3-yl)-3-(2H-tetrazol-5-yl)benzene-1,2-disulfonamide]	0.536 nM	0.255 nM		0.2197 µM	1.953 µM	0.5859 µM	0.7813 µM	0.7813 µM	1.00	0.169 nM
NC[C@H](O)CNS(=O)(=O)c1ccc(-c2cccc3[nH]c(N)nc23)c(-c2nn[nH]n2)c1S(N)(=O)=O [Example 304, (S)-4-(2-amino-1H-benzo[d]imidazol-4-yl)-N1-(3-amino-2-hydroxypropyl)-3-(2H-tetrazol-5-yl)-benzene-1,2-disulfonamide]	0.617 nM	0.0608 nM	0.208 nM	0.3906 µM	1.563 µM	0.7813 µM	0.3906 µM	0.7813 µM	0.50	
NCc1nc2c(-c3ccc(S(=O)(=O)NC[C@@H](O)CN)c(S(N)(=O)=O)c3-c3nn[nH]n3)cccc2[nH]1 [Example 305, (S)—N1-(3-amino-2-hydroxypropyl)-4-(2-(aminomethyl)-1H-benzo[d]imidazole-4-yl)-3-(2H-tetrazol-5-yl)benzene-1,2-disulfonamide]	2.06 nM	0.136 nM		1.172 µM	1.563 µM	1.172 µM	0.7813 µM	0.7813 µM	1.00	0.175 nM
NCc1nc2c(-c3ccc(S(=O)(=O)NC[C@@H](O)CN)c(S(N)(=O)=O)c3-c3nn[nH]n3)cccc2s1 [Example 306, (S)—N1-(3-amino-2-hydroxypropyl)-4-(2-(aminomethyl)benzo[d]thiazol-4-yl)-(2H-tetrazol-5-yl)benzene-1,2-disulfonamide]	0.293 nM	0.0587 nM		0.7813 µM	1.563 µM	0.7813 µM	0.7813 µM	0.7813 µM	1.00	0.0564 nM
NC[C@H](O)CNS(=O)(=O)c1ccc(-c2cccc3[nH]cnc23)c(-c2nn[nH]n2)c1S(N)(=O)=O [Example 307, (S)-4-(1H-benzo[d]imidazol-4-yl)-N1-(3-amino-2-hydroxypropyl)-3-(2H-tetrazol-5-yl)-benzene-1,2-disulfonamide]	0.258 nM	0.0339 nM	0.113 nM	1.563 µM	1.563 µM	1.563 µM	0.7813 µM	0.7813 µM	1.00	
Cn1c(N)nc2c(-c3ccc(S(=O)(=O)NC[C@@H](O)CN)c(S(N)(=O)=O)c3-c3nn[nH]n3)cccc21 [Example 308, (S)-4-(2-amino-1-methyl-1H-benzo[d]imidazol-4-yl)-N1-(3-amino-2-hydroxypropyl)-3-(2H-tetrazol-5-yl)benzene-1,2-disulfonamide]	0.403 nM	0.0619 nM		0.3906 µM	1.563 µM	0.7813 µM	0.7813 µM	0.7813 µM	1.00	0.179 nM
NC[C@H](O)CNS(=O)(=O)c1ccc(-c2ccc(N)nc2)c(-c2nn[nH]n2)c1S(N)(=O)=O [Example 309, (S)-N1-(3-amino-2-hydroxypropyl)-4-(6-aminopyridin-3-yl)-3-(2H-tetrazol-5-yl)benzene-1,2-disulfonamide]	0.501 nM	0.197 nM		0.2279 µM	1.563 µM	0.5208 µM	0.7813 µM	0.7813 µM	1.00	0.2 nM
Nc1nc2c(-c3ccc(S(=O)(=O)NC[C@@H]4CNCCN4)c(S(N)(=O)=O)c3-c3nn[nH]n3)cccc2[nH]1 [Example 310, (S)-4-(2-amino-1H-benzo[d]imidazol-4-yl)-N1-(piperazin-2-ylmethyl)-3-(2H-tetrazol-5-yl)benzene-1,2-disulfonamide]	0.667 nM	0.0521 nM	0.169 nM	0.7813 µM	1.563 µM	0.7813 µM	0.7813 µM	0.7813 µM	1.00	
Nc1ccc(-c2ccc(S(=O)(=O)NC[C@@H]3CNCCN3)c(S(N)(=O)=O)c2-c2nn[nH]n2)cn1 [Example 312, (S)-4-(6-aminopyridin-3-yl)-N1-(piperazin-2-ylmethyl)-3-(2H-tetrazol-5-yl)benzene-1,2-disulfonamide]	0.586 nM	0.216 nM		0.3906 µM	3.125 µM	0.7813 µM	1.563 µM	1.563 µM	1.00	0.28 nM
